pIC50: −log10 of the molar value. “Also recorded” adds a separate entry of the source. Read-outs that look alike come from different tables or passages of the source.

The source of these data is patent US11000506B2, “Envenomation therapies and related pharmaceutical compositions, systems and kits” (OPHIREX, INC, priority 2014, dated 2021).

The target of series [1] is snake venom metalloproteinase. Description: IC50 for MP inhibition on various venoms (Table 8, FIG. 20). The class given is biochemical. To be noted: general statement; values only in figures.
The subject of the next series is E. carinatus venom MP. Nature of the series: HTS for inhibitors of E. carinatus venom MP. The class given is biochemical. To be noted: compounds approximately 10 μM/well. The procedure:
(§1) Background. Phospholipase A2 (PLA2) catalyzes the hydrolysis of phospholipids at the sn-2 position yielding a free fatty acid and a lysophospholipid. The release of arachidonic acid from membrane phospholipids by PLA is believed to be a key step in the control of eicosanoid production within the cell. The Bee Venom PLA2 Control was a 100 μg/ml solution of bee venom PLA2 is supplied as a positive control in the kit (Abcam kit catalog number ab133089). Substrate for MP was DQ Gelatin and assay run per EnzChek gelatinase assay manufacturers instructions. Venom MP activity was not optimized in initial experiments, but reaction rates were during experiments performed by an independently contracted laboratory. SP assay was performed using Nα-Benzoyl-L-arginine-7-amido-4-methylcoumarin hydrochloride. These kits were stored as specified if stored at −20° C. Unless otherwise specified, in the case of my experiments, only crude, unfractionated lyophilized venom purchased from Sigma or the Miami Serpentarium were used. Plate Setup: Manufacturers guidelines (paraphrased herein) were followed unless otherwise specified. Data Analysis: xcel per manufacturers recommendations. MP and SP assays were prepared and plated in the same manner as PLA2 assays except substrates and fluorophores were different. PBS was the buffer in the case of MP and SP assays and absorbance measured at 495 nm. Substrate for MP was DQ Gelatin and assay run per EnzChek gelatinase assay manufacturers instructions except that experiments were run, unconventionally at 37 C to estimate human body temperature and initial experiments for PLA2, MP activity and SP activity were not optimized for screening (e.g. extremely high doses of venom were used—10 mg/mL stock in all cases since the quality of the venom was unknown with final concentration of 0.444 mg/mL in the test wells). SP assay was performed using Na-Benzoyl-L-arginine-7-amido-4-methylcoumarin hydrochloride (Sigma). Specifics of contract laboratory technique vary from the present inventor's initial experiments in terms of venom and substrate optimization, plate size (384 instead of 96), volume and temperature and other factors including different operators such as those described immediately below, performed following the first pilot experiments and subsequently extended by a contract laboratory.
Small molecule screening and dose-response experiments took place in the Yale Center for Molecular Discovery. Instrumentation used when indicated included Tecan EVO (2), Tecan Aquarius, Matrix PlateMatePlus (2), Matrix PlateMate2×2 liquid transfer robots and Titertek and Thermo Multidrop liquid dispensers (7). PerkinElmer EnVision (3) and Tecan infinite M1000 (2) plate readers sensitively measure absorbance, fluorescence, fluorescence polarization and luminescence in 96- and 384-well plate formats. A GE InCell Analyzer 2200 imaging system acquires multicolor fluorescent and transmitted light images from plates. Piloting collections used in the first phases of screening were selected by the inventor or from libraries of known compounds and natural products available at the time of experiments on selected venoms including: NCC, GenPlus, Pharmakon, Bioactive lipids, Protease Inhibitors, Procured Drugs and FDA Approved Drugs libraries. The GenPlus (the NINDS Custom Collection) from MicroSource Discovery Systems contains 960 compounds. […]

Series [2] has as its system Oxyuranus scutellatus venom serine protease. Nature of the series: inhibition of venom serine proteases in vitro (FIG. 14). The following applies: elapid Oxyuranus scutellatus. The class given is biochemical.
Description: Substrate for MP was DQ Gelatin and assay run per EnzChek gelatinase assay manufacturers instructions. Venom MP activity was not optimized in initial experiments, but reaction rates were during experiments performed by an independently contracted laboratory. SP assay was performed using Nα-Benzoyl-L-arginine-7-amido-4-methylcoumarin hydrochloride. […] Unless otherwise specified, in the case of my experiments, only crude, unfractionated lyophilized venom purchased from Sigma or the Miami Serpentarium were used. Plate Setup: Manufacturers guidelines (paraphrased herein) were followed unless otherwise specified. […] MP and SP assays were prepared and plated in the same manner as PLA2 assays except substrates and fluorophores were different. PBS was the buffer in the case of MP and SP assays and absorbance measured at 495 nm. Substrate for MP was DQ Gelatin and assay run per EnzChek gelatinase assay manufacturers instructions except that experiments were run, unconventionally at 37 C to estimate human body temperature and initial experiments for PLA2, MP activity and SP activity were not optimized for screening (e.g. extremely high doses of venom were used—10 mg/mL stock in all cases since the quality of the venom was unknown with final concentration of 0.444 mg/mL in the test wells). SP assay was performed using Na-Benzoyl-L-arginine-7-amido-4-methylcoumarin hydrochloride (Sigma). […]
Series [3] concerns snake venom PLA2. The class given is biochemical. As to the method: (§2) Background. Phospholipase A2 (PLA2) catalyzes the hydrolysis of phospholipids at the sn-2 position yielding a free fatty acid and a lysophospholipid. The release of arachidonic acid from membrane phospholipids by PLA is believed to be a key step in the control of eicosanoid production within the cell. The Bee Venom PLA2 Control was a 100 μg/ml solution of bee venom PLA2 is supplied as a positive control in the kit (Abcam kit catalog number ab133089). Substrate for MP was DQ Gelatin and assay run per EnzChek gelatinase assay manufacturers instructions. Venom MP activity was not optimized in initial experiments, but reaction rates were during experiments performed by an independently contracted laboratory. SP assay was performed using Nα-Benzoyl-L-arginine-7-amido-4-methylcoumarin hydrochloride. These kits were stored as specified if stored at −20° C. Unless otherwise specified, in the case of my experiments, only crude, unfractionated lyophilized venom purchased from Sigma or the Miami Serpentarium were used. Plate Setup: Manufacturers guidelines (paraphrased herein) were followed unless otherwise specified. Data Analysis: xcel per manufacturers recommendations. MP and SP assays were prepared and plated in the same manner as PLA2 assays except substrates and fluorophores were different. PBS was the buffer in the case of MP and SP assays and absorbance measured at 495 nm. […]
(§3) Small molecule screening and dose-response experiments took place in the Yale Center for Molecular Discovery. […] PerkinElmer EnVision (3) and Tecan infinite M1000 (2) plate readers sensitively measure absorbance, fluorescence, fluorescence polarization and luminescence in 96- and 384-well plate formats. […]

In series [4] the test system is M. fulvius venom. Nature of the series: protection of mice from M. fulvius venom (FIG. 6A-D). The class given is in vivo. As to the method: (§4) Mice received SC injections of M. fulvius venom at ^˜4 times the expected LD50 (typically estimated to be 1.3 mg/kg SC) (0.1 mg M. fulvius venom/animal for approximate dose of ^˜4 mg/kg). Prior to venom injection animals received either total dose 0.1 mg varespladib exipient (sham treatment) by SC route for calculated concentration of 4 mg/kg varespladib ^˜10-15 minutes before venom administration. Surviving animals were euthanized by CO2 inhalation at the end of experiments and observations periods ranging from ^˜12 hours to as long as 30 hours (survival being designated at 24 hours). […] In mice: Varespladib 4-8 mg/kg subcutaneously or orally with methylvarespladib, taken ad libitum. In rats, varespladib or excipient was administered intravenously at 30 seconds or 5 minutes following subcutaneous administration of venom at 4 or 8 mg/kg. Blood sampling and assay for sPLA2 activity was performed with samples taken from a surgically implanted jugular venous catheter at precise intervals (baseline, 30 minutes, 1 hour and 4 hours).
(§5) 6B Mice fed methylvarespladib or exipient ad libitum in biscuits had high-dose M. fulvius venom administered ^˜5 hours after introduction of the biscuits (N=2 each group). […] 6C Venom and varespladib (4 mg/kg) or venom and excipient were mixed just prior to administration and injected subcutaneously. At 5 hours (300 minutes, down-pointing arrow), surviving animals were retreated with ½ dose varespladib (2 mg/kg) or excipient. […] Mice either received venom and sham/excipient (N=7), methylvarespladib (N=3) or varespladib (N=7) ^˜30 seconds to 1.5 minute following venom administration. […] Confirmatory experiments and results of 6E-H were performed in rats by a contract laboratory to assess expand knowledge of varespladib's capacity to act in therapeutic mode and see if the effects of intravenous administration were similar to subcutaneous administration. 6E and 6F M. fulvius venom was administered subcutaneously (4 mg/kg or 8 mg/kg) and then excipient or varespladib 8 mg/kg was administered at 30 seconds or 5 minutes after envenomation.

The test system of series [5] is snake venom serine proteases. Description: serine protease activity with excess venom (FIG. 3). The class given is biochemical. To be noted: 100 um; venom 0.444 mg/mL; compared to marimastat and batimastat.
Description: Substrate for MP was DQ Gelatin and assay run per EnzChek gelatinase assay manufacturers instructions. Venom MP activity was not optimized in initial experiments, but reaction rates were during experiments performed by an independently contracted laboratory. SP assay was performed using Nα-Benzoyl-L-arginine-7-amido-4-methylcoumarin hydrochloride. […] Unless otherwise specified, in the case of my experiments, only crude, unfractionated lyophilized venom purchased from Sigma or the Miami Serpentarium were used. Plate Setup: Manufacturers guidelines (paraphrased herein) were followed unless otherwise specified. Data Analysis: xcel per manufacturers recommendations. MP and SP assays were prepared and plated in the same manner as PLA2 assays except substrates and fluorophores were different. PBS was the buffer in the case of MP and SP assays and absorbance measured at 495 nm. Substrate for MP was DQ Gelatin and assay run per EnzChek gelatinase assay manufacturers instructions except that experiments were run, unconventionally at 37 C to estimate human body temperature and initial experiments for PLA2, MP activity and SP activity were not optimized for screening (e.g. extremely high doses of venom were used—10 mg/mL stock in all cases since the quality of the venom was unknown with final concentration of 0.444 mg/mL in the test wells). […]
For a further series, the system named is Daboia russelli venom MP. Nature of the series: metalloproteinase activity over time, Daboia russelli venom (FIG. 2B). The class given is biochemical. The following applies: 100 uM; venom 0.444 mg/mL.
Series [6] relates to snake venom metalloproteinase. Description: time course of metalloproteinase activity with excess venom (FIG. 2A). The class given is biochemical. To be noted: inhibitors 100 uM; venom 0.444 mg/mL.
Description: Substrate for MP was DQ Gelatin and assay run per EnzChek gelatinase assay manufacturers instructions. Venom MP activity was not optimized in initial experiments, but reaction rates were during experiments performed by an independently contracted laboratory. SP assay was performed using Nα-Benzoyl-L-arginine-7-amido-4-methylcoumarin hydrochloride. […] Unless otherwise specified, in the case of my experiments, only crude, unfractionated lyophilized venom purchased from Sigma or the Miami Serpentarium were used. Plate Setup: Manufacturers guidelines (paraphrased herein) were followed unless otherwise specified. Data Analysis: xcel per manufacturers recommendations. MP and SP assays were prepared and plated in the same manner as PLA2 assays except substrates and fluorophores were different. PBS was the buffer in the case of MP and SP assays and absorbance measured at 495 nm. Substrate for MP was DQ Gelatin and assay run per EnzChek gelatinase assay manufacturers instructions except that experiments were run, unconventionally at 37 C to estimate human body temperature and initial experiments for PLA2, MP activity and SP activity were not optimized for screening (e.g. extremely high doses of venom were used—10 mg/mL stock in all cases since the quality of the venom was unknown with final concentration of 0.444 mg/mL in the test wells). SP assay was performed using Na-Benzoyl-L-arginine-7-amido-4-methylcoumarin hydrochloride (Sigma). Specifics of contract laboratory technique vary from the present inventor's initial experiments in terms of venom and substrate optimization, plate size (384 instead of 96), volume and temperature and other factors including different operators such as those described immediately below, performed following the first pilot experiments and subsequently extended by a contract laboratory.
(§9) Screening was carried out for inhibitors of venom sPLA2, MP and SPs. Stock solutions of venom at 10 mg/mL were used without typical dilution for assaying various inhibitors of sPLA2, MP and SPs. The final venom concentration in the assays was very high at 0.444 mg/mL.
For series [7] the following is noted: varespladib alone, no venom; N=2. An excerpt: (§6) V. berus is the most widely distributed viper in the world, ranging across Europe and Eurasia and as far north as the Arctic circle. It elaborates both hemo- and neurotoxins dangerous especially to children, pets and large animals such as horses.
Series [8] relates to Agkistrodon contortrix venom PLA2. Description: venom sPLA2 inhibition IC50, varespladib and CroFab alone and together. The class given is biochemical. As to the method: as §1
(§7) Small molecule screening and dose-response experiments took place in the Yale Center for Molecular Discovery. Instrumentation used when indicated included Tecan EVO (2), Tecan Aquarius, Matrix PlateMatePlus (2), Matrix PlateMate2×2 liquid transfer robots and Titertek and Thermo Multidrop liquid dispensers (7). PerkinElmer EnVision (3) and Tecan infinite M1000 (2) plate readers sensitively measure absorbance, fluorescence, fluorescence polarization and luminescence in 96- and 384-well plate formats. A GE InCell Analyzer 2200 imaging system acquires multicolor fluorescent and transmitted light images from plates. Piloting collections used in the first phases of screening were selected by the inventor or from libraries of known compounds and natural products available at the time of experiments on selected venoms including: NCC, GenPlus, Pharmakon, Bioactive lipids, Protease Inhibitors, Procured Drugs and FDA Approved Drugs libraries. The GenPlus (the NINDS Custom Collection) from MicroSource Discovery Systems contains 960 compounds. This unique selection of known bioactive compounds permits the simultaneous evaluation of hundreds of marketed drugs and biochemical standards. The Pharmakon 1600 collection (MicroSource) includes known drugs used globally or studied in clinical trials.
(§8) Each assay was characterized in similar fashion, using methodology well-established in the Center. Assays are typically performed in 384-well microtiter plates.

Series [9] deals with Crotalus scutulatus scutulatus venom PLA2. The description is as above. The class given is biochemical. The procedure: as §1, §7, §8
Series [10] deals with Crotalus adamanteus venom PLA2. The series is described as above. The class given is biochemical. As to the method:
as §1, §7, §8

Series [11] deals with Acanthophis antarcticus venom PLA2. Described as above. The class given is biochemical. As to the method:
as §1, §7, §8

For series [12], the system named is Agkistrodon piscivorus venom PLA2. Described as above. The class given is biochemical. As to the method: as §1, §7, §8
The test system of the next series is Vipera berus venom. Nature of the series: survival of mice given Vipera berus venom (FIG. 9). The class given is in vivo. The following applies: for survival versus controls: N=7.
Source text: as §6

For series [13], the system named is snake venom PLA2. Nature of the series: time course of PLA2 activity with excess venom (FIG. 1). The class given is biochemical. To be noted: inhibitor 100 uM; venom 0.444 mg/mL final; 37 C.
Source text: Plate Setup: Manufacturers guidelines (paraphrased herein) were followed unless otherwise specified. Data Analysis: xcel per manufacturers recommendations. […] Substrate for MP was DQ Gelatin and assay run per EnzChek gelatinase assay manufacturers instructions except that experiments were run, unconventionally at 37 C to estimate human body temperature and initial experiments for PLA2, MP activity and SP activity were not optimized for screening (e.g. extremely high doses of venom were used—10 mg/mL stock in all cases since the quality of the venom was unknown with final concentration of 0.444 mg/mL in the test wells).
as §9
For series [14], the system named is Crotalus otrox venom PLA2. Nature of the series: venom sPLA2 inhibition IC50, varespladib and CroFab alone and together. The class given is biochemical, Crotalus atrox. As to the method:
as §2, with “Plate Setup: Manufacturers guidelines (paraphrased herein) were followed unless otherwise specified. Data Analysis: xcel per manufacturers recommendations. MP and SP assays were prepared and plated in the same manner as PLA2 assays except substrates and fluorophores were different.” left out
as §3

A further series deals with C. scutulatus venom. Description: survival of mice coinjected with C. scutulatus venom (FIG. 7A). The class given is in vivo. To be noted: coinjected SC with C. scutulatus venom, single dose; N=4.
For series [15], the system named is M. fulvius venom. Description: treatment of rats after M. fulvius venom (FIG. 6E-H). The class given is in vivo. The following applies: varespladib IV. The procedure:
as §4, §5

The next series addresses bee venom PLA2 (Apis mellifera, UniProt P00630). The class given is biochemical.
The subject of a further series is D. russelli venom. Nature of the series: survival of mice given Daboia russelli venom (FIG. 8). The class given is in vivo. To be noted: varespladib 4 mg/kg SC 60 to 90 minutes before lethal dose of D. russelli venom; N=3.
Where [16] appears, read: varespladib alone, read-out: Varespladib (IC50 nM).
Where [17] appears, read: varespladib and CroFab ® together, read-out: Varespladib IC50 (nM) With CroFab ®.

bee venom PLA2, sequence (P00630 34-167 limits assumed): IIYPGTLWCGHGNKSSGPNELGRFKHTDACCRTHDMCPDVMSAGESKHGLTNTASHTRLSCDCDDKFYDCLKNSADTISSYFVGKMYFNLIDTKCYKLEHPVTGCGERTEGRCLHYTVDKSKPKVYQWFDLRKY
Description for Daboia russelli venom MP: Substrate for MP was DQ Gelatin and assay run per EnzChek gelatinase assay manufacturers instructions. Venom MP activity was not optimized in initial experiments, but reaction rates were during experiments performed by an independently contracted laboratory. […] These kits were stored as specified if stored at −20° C. Unless otherwise specified, in the case of my experiments, only crude, unfractionated lyophilized venom purchased from Sigma or the Miami Serpentarium were used. Plate Setup: Manufacturers guidelines (paraphrased herein) were followed unless otherwise specified. Data Analysis: xcel per manufacturers recommendations. MP and SP assays were prepared and plated in the same manner as PLA2 assays except substrates and fluorophores were different. PBS was the buffer in the case of MP and SP assays and absorbance measured at 495 nm. Substrate for MP was DQ Gelatin and assay run per EnzChek gelatinase assay manufacturers instructions except that experiments were run, unconventionally at 37 C to estimate human body temperature and initial experiments for PLA2, MP activity and SP activity were not optimized for screening (e.g. extremely high doses of venom were used—10 mg/mL stock in all cases since the quality of the venom was unknown with final concentration of 0.444 mg/mL in the test wells). […]

Take `N=C(N)c1ccc2cc(OC(=O)c3ccc(N=C(N)N)cc3)ccc2c1` [Nafamostat]: the “IC50s on various venoms” value in [1] is given as “micromolar range”. In addition, the “% Effect on E. carinatus venom MP” value in the series with E. carinatus venom MP came out at 28%. In series [2], the “activity against venom serine protease in vitro” value is recorded as “surprising activity”.
Regarding `CCc1c(C(=O)C(N)=O)c2c(OCC(=O)O)cccc2n1Cc1ccccc1` [Varespladib], in the series with snake venom PLA2 [3], the “inhibition of snake venom PLA2 in vitro” value is “inhibited snake venom PLA2; also recorded: inhibited the measured sPLA2 activity of several medically important snake venoms”. The pIC50 in the series with snake venom PLA2 [3] (read-out: IC50s specific for snake venoms, lowest value) is no more than 10.30. Moreover, the “mice that died within 8 hours” value with M. fulvius venom [4] (varespladib 4 mg/kg SC minutes before M. fulvius venom 4 mg/kg SC) was 0 of 5. The “mice survived to the endpoint of 24 hours” value with M. fulvius venom [4] ({}) is 5/5. For the same compound, the “inhibitory effects on snake venom serine proteases” value in [5] was “unexpected inhibitory effects”. In the series on Daboia russelli venom MP, the “inhibition of Daboia russelli venom MP over time” value is “comparable inhibition”. The “inhibition of metalloproteinase activity (time course)” value in series [6] is “showed inhibition of MP activity in several snake venoms”. For the same compound, in [7], the signs of toxicity result is “no signs of toxicity”. Also, the IC50 in series [8] (setting [16]) stood at 0.22 nM; in [8] (setting [17]), 0.045 nM; in [9] (setting [16]), 1.51 nM; in [9] (setting [17]) it was 0.82 nM; in [10] (setting [16]) it was 0.25 nM; in series [10] (setting [17]) it was 0.05 nM. Besides, the IC50 came to 0.74 nM in [11] (setting [16]); 0.43 nM in [11] (setting [17]); 0.28 nM in series [12] (setting [16]); 0.05 nM in series [12] (setting [17]); 0.32 nM in series [14] (setting [16]); 0.07 nM in series [14] (setting [17]). Further, the “animals that outlived controls” value with Vipera berus venom (Venom SC followed by Varespladib SC 8 mg/kg) is given as 4 of 5. The survival versus controls entry with Vipera berus venom (lethal venom dose just prior to SC varespladib) is “outlived controls”; in the series with Vipera berus venom (venom and varespladib injected simultaneously SC), “outlived controls”; in the series on D. russelli venom, “outlived controls”. In the series with Vipera berus venom (varespladib IV 8 mg/kg lateral tail vein following venom), the “animals surviving 24 hours” value was 5 of 5. Moreover, the “inhibition of snake venom PLA2 activity (time course)” value in the series on snake venom PLA2 [13] is given as “inhibited PLA2 activity in all snake venoms tested”. In the series on C. scutulatus venom, the “survival versus venom only controls” value is “outlived controls”. Moreover, the “sPLA2 activity in blood samples” value with M. fulvius venom [15] (high dose coral snake venom SC, baseline, 30 minutes, 1 hour, 4 hours) is listed as “dramatic suppression of sPLA2 activity”. Further, the “gross hemolysis in serum samples” value in the series with M. fulvius venom [15] (venom SC) is on record as “no or minimally visible hemolysis”. In the series on M. fulvius venom [15] (venom SC), the “pulmonary hemorrhage at necropsy” value is reported as “either no or minimal pulmonary hemorrhage”. Besides, on bee venom PLA2, the “inhibition of bee venom PLA2” value is on record as “not inhibited; also recorded: only a modest effect”. The “survival at 24 hours” value in the series with D. russelli venom is recorded as “all survived 24 hours”.
